What was measured:
[1] = target: T1, human TYRO3 (455-end) (Homo sapiens, UniProt Q06418); assay: HTRF kinase activity biochemical assay, TYRO3; conditions: 10 μM ATP, 30 minutes pre-incubation; read-out: HTRF TYRO IC50
T1 construct: TYRO3 (455-end); purchased SignalChem, Canada
T1 sequence (Q06418 455-890 limits assumed): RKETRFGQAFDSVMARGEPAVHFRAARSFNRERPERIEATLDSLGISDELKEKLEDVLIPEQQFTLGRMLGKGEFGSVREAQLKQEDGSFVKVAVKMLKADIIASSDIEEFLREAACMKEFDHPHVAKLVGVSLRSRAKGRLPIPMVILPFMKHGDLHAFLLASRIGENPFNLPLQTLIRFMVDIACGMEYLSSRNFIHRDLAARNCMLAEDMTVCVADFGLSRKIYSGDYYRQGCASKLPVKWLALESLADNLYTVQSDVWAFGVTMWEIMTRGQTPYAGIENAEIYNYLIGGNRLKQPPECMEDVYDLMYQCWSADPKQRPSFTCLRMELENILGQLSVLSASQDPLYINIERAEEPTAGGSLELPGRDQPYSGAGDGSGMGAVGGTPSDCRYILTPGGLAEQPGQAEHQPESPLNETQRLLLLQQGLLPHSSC
Description: (§1) For the SAR (structure-activity relationship) and compound screening, HTRF (Homogeneous Time Resolved Fluorescence) kinase activity assay was employed for all MER, AXL and TYRO3 kinases using Cisbio HTRF® KinEASE™-TK kit (Cisbio, USA). The kit included biotin-labeled TK substrate, streptavidin-XL665, Eu3+-cryptate-labeled TK antibody and HTRF® Detection buffer. There are two main steps in the kinase assay: kinase reaction and detection of phosphorylated substrate. The reaction was carried out in white low volume 384-well plate (Corning, USA) with 25 nL compound in dimethyl sulfoxide in each well. […] After 1 hour incubation at room temperature, the fluorescence intensity was measured with Envision[…] plate reader (PerkinElmer, USA). Upon excitation at 340 nm by UV, the energy from Eu3+ donor of the antibody is transferred to the FRET acceptor XL665, and […] emits light at 665 nm.

[2] = target: T2, human AXL (473-end) (Homo sapiens, UniProt P30530); assay: HTRF kinase activity biochemical assay, AXL; conditions: 10 μM ATP, 30 minutes pre-incubation
T2 construct: human AXL (473-end); purchased SignalChem, Canada
T2 sequence (P30530 473-894 limits assumed): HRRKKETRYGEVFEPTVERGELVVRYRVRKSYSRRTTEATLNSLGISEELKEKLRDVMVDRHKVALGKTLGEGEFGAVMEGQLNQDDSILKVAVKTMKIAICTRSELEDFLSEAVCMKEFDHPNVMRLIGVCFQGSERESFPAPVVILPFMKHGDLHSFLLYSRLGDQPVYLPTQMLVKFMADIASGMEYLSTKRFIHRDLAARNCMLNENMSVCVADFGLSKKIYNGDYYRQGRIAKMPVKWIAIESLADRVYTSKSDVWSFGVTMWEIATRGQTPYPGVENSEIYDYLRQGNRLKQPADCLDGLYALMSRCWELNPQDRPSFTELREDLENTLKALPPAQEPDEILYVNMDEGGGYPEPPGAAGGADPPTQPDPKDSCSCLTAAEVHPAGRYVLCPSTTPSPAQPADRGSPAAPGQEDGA
Description: as §1

[3] = target: T3, human MER (528-end) (Homo sapiens, UniProt Q12866); assay: HTRF kinase activity biochemical assay, MER; conditions: 10 μM ATP, 30 minutes pre-incubation; read-out: HTRF MERTK IC50
T3 construct: human MER (528-end); purchased Camnabio, Japan
T3 sequence (Q12866 528-999 limits assumed): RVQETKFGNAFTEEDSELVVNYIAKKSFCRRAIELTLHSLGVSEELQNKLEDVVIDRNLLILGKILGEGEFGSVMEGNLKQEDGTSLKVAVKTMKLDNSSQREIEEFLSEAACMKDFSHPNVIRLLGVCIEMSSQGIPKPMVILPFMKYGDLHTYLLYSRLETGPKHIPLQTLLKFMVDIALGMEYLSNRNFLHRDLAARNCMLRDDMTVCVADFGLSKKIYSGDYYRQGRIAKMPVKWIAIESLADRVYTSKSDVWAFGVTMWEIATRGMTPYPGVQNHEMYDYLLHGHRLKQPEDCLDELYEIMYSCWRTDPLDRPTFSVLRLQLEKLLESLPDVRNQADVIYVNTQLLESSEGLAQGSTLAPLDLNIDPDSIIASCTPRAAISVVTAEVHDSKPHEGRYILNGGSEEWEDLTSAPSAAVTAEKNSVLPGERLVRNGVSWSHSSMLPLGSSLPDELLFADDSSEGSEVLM
Description: as §1

IC50 [1] [nM]	IC50 [2] [nM]	IC50 [3] [nM]	SMILES
> 1000	> 1000	100 to 1000	CN(C)CCC(=O)N1Cc2ccc(-c3ccc(CO[C@H]4CCC[C@@H]4NC(=O)c4cc(-c5cnn(C)c5)cnc4N)cc3)cc2C1 [Example 1, 2-amino-N-{(1S,2S)-2-[(4-{2-[3-(dimethylamino)propanoyl]-2,3-dihydro-1H-isoindol-5-yl}phenyl)methoxy]cyclopentyl}-5-(1-methyl-1H-pyrazol-4-yl)pyridine-3-carboxamide]
> 1000	100 to 1000	100 to 1000	CN(C)CC(=O)N1CCc2cc(-c3ccc(CO[C@H]4CCC[C@@H]4NC(=O)c4cc(-c5cnn(C)c5)cnc4N)cc3)ccc21 [Example 2, 2-amino-N-{(1S,2S)-2-[(4-{1-[(dimethylamino)acetyl]-2,3-dihydro-1H-indol-5-yl}phenyl)methoxy]cyclopentyl}-5-(1-methyl-1H-pyrazol-4-yl)pyridine-3-carboxamide]
> 1000	100 to 1000	10 to 100	CN1C(=O)Cc2cc(-c3ccc(CO[C@H]4CCC[C@@H]4NC(=O)c4cc(-c5cnn(C)c5)cnc4N)cc3)ccc21 [Example 3, 2-amino-N-[(1S,2S)-2-{[4-(1-methyl-2-oxo-2,3-dihydro-1H-indol-5-yl)phenyl]methoxy}cyclopentyl]-5-(1-methyl-1H-pyrazol-4-yl)pyridine-3-carboxamide]
> 1000	10 to 100	< 10	CN(C)CC(=O)NC1Cc2ccc(-c3ccc(CO[C@H]4CCC[C@@H]4NC(=O)c4cc(-c5cnn(C)c5)cnc4N)cc3)cc2C1 (stereo partly drawn) [Example 9, 2-amino-N-{(1S,2S)-2-[(4-{2-[2-(dimethylamino)acetamido]-2,3-dihydro-1H-inden-5-yl}phenyl)methoxy]cyclopentyl}-5-(1-methyl-1H-pyrazol-4-yl)pyridine-3-carboxamide]
> 1000	10 to 100	< 10	CN1CC(C(=O)NC2Cc3ccc(-c4ccc(CO[C@H]5CCC[C@@H]5NC(=O)c5cc(-c6cnn(C)c6)cnc5N)cc4)cc3C2)C1 (stereo partly drawn) [Example 11, 2-amino-N-{(1S,2S)-2-[(4-{2-[(1-methylazetidine-3-carbonyl)amino]-2,3-dihydro-1H-inden-5-yl}phenyl)methoxy]cyclopentyl}-5-(1-methyl-1H-pyrazol-4-yl)pyridine-3-carboxamide]

Second part, the compound before the results:

SMILES	IC50 [1] [nM]	IC50 [2] [nM]	IC50 [3] [nM]
Cn1cc(-c2cnc(N)c(C(=O)N[C@H]3CCC[C@@H]3OCc3ccc(-c4ccc5c(ccn5C5CCN(C(=O)OC(C)(C)C)CC5)c4)cc3)c2)cn1 [Example 4, tert-butyl 4-{5-[4-({[(1S,2S)-2-{[2-amino-5-(1-methyl-1H-pyrazol-4-yl)pyridine-3-carbonyl]amino}cyclopentyl]oxy}methyl)phenyl]-1H-indol-1-yl}piperidine-1-carboxylate]	> 1000	100 to 1000	> 1000
Cn1cc(-c2cnc(N)c(C(=O)N[C@H]3CCC[C@@H]3OCc3ccc(-c4ccc5c(ccn5C5CCNCC5)c4)cc3)c2)cn1 [Example 5, 2-amino-5-(1-methyl-1H-pyrazol-4-yl)-N-[(1S,2S)-2-({4-[1-(piperidin-4-yl)-1H-indol-5-yl]phenyl}methoxy)cyclopentyl]pyridine-3-carboxamide]	100 to 1000	< 10	< 10
CN1CCC(n2ccc3cc(-c4ccc(CO[C@H]5CCC[C@@H]5NC(=O)c5cc(-c6cnn(C)c6)cnc5N)cc4)ccc32)CC1 [Example 6, 2-amino-N-[(1S,2S)-2-({4-[1-(1-methylpiperidin-4-yl)-1H-indol-5-yl]phenyl}methoxy)cyclopentyl]-5-(1-methyl-1H-pyrazol-4-yl)pyridine-3-carboxamide]	100 to 1000	< 10	< 10
Cn1cc(-c2cnc(N)c(C(=O)N[C@H]3CCC[C@@H]3OCc3ccc(-c4ccc5c(ccn5C5CCN(CCO)CC5)c4)cc3)c2)cn1 [Example 7, 2-amino-N-{(1S,2S)-2-[(4-{1-[1-(2-hydroxyethyl)piperidin-4-yl]-1H-indol-5-yl}phenyl)methoxy]cyclopentyl}-5-(1-methyl-1H-pyrazol-4-yl)pyridine-3-carboxamide]	100 to 1000	< 10	< 10
CN1CCC(C(=O)NC2Cc3ccc(-c4ccc(CO[C@H]5CCC[C@@H]5NC(=O)c5cc(-c6cnn(C)c6)cnc5N)cc4)cc3C2)CC1 (stereo partly drawn) [Example 10, 2-amino-N-{(1S,2S)-2-[(4-{2-[(1-methylpiperidine-4-carbonyl)amino]-2,3-dihydro-1H-inden-5-yl}phenyl)methoxy]cyclopentyl}-5-(1-methyl-1H-pyrazol-4-yl)pyridine-3-carboxamide]	> 1000	10 to 100	< 10
CN1CCC(N2CC(C)(C)c3cc(-c4ccc(CO[C@H]5CCC[C@@H]5NC(=O)c5cc(-c6cnn(C)c6)cnc5N)cc4)ccc32)CC1 [Example 12, 2-amino-N-[(1S,2S)-2-({4-[3,3-dimethyl-1-(1-methylpiperidin-4-yl)-2,3-dihydro-1H-indol-5-yl]phenyl}methoxy)cyclopentyl]-5-(1-methyl-1H-pyrazol-4-yl)pyridine-3-carboxamide]	10 to 100	< 10	< 10
Cn1cc(-c2cnc(N)c(C(=O)N[C@H]3CCC[C@@H]3OCc3ccc(-c4ccc5c(c4)C(C)(C)CN5C4CCN(CCO)CC4)cc3)c2)cn1 [Example 13, 2-amino-N-{(1S,2S)-2-[(4-{1-[1-(2-hydroxyethyl)piperidin-4-yl]-3,3-dimethyl-2,3-dihydro-1H-indol-5-yl}phenyl)methoxy]cyclopentyl}-5-(1-methyl-1H-pyrazol-4-yl)pyridine-3-carboxamide]	10 to 100	< 10	< 10
Cn1cc(-c2cnc(N)c(C(=O)N[C@H]3COC[C@@H]3OCc3ccc(-c4ccc5c(ccn5C5CCN(CCO)CC5)c4)cc3)c2)cn1 [Example 14, 2-amino-N-{(3S,4R)-4-[(4-{1-[1-(2-hydroxyethyl)piperidin-4-yl]-1H-indol-5-yl}phenyl)methoxy]oxolan-3-yl}-5-(1-methyl-1H-pyrazol-4-yl)pyridine-3-carboxamide]	> 1000	10 to 100	< 10
CN1CCC(c2c[nH]c3cc(-c4ccc(CO[C@H]5CCC[C@@H]5NC(=O)c5cc(-c6cnn(C)c6)cnc5N)cc4)ccc23)CC1 [Example 15, 2-amino-N-[(1S,2S)-2-({4-[3-(1-methylpiperidin-4-yl)-1H-indol-6-yl]phenyl}methoxy)cyclopentyl]-5-(1-methyl-1H-pyrazol-4-yl)pyridine-3-carboxamide]	> 1000	100 to 1000	10 to 100
Cn1cc(-c2cnc(N)c(C(=O)N[C@H]3COC[C@@H]3OCc3ccc(-c4ccc5c(ccn5C)c4)cc3)c2)cn1 [Example 16, 2-amino-N-[(3S,4R)-4-{[4-(1-methyl-1H-indol-5-yl)phenyl]methoxy}oxolan-3-yl]-5-(1-methyl-1H-pyrazol-4-yl)pyridine-3-carboxamide]	> 1000	10 to 100	10 to 100
